Measurements taken from ChEMBL document CHEMBL1201862, “PubChem BioAssay data set” (2004).
Active and inactive are the calls of the source.

Key:
[1] = target: T1, Sentrin-specific protease 1 (Homo sapiens, UniProt Q9P0U3); test: potency of human SENP1 inhibitors, dose response, biochemical, kinetic FRET (AID 651697); type: functional; settings: read-out: IC50_Mean
T1 sequence (Q9P0U3 whole entry): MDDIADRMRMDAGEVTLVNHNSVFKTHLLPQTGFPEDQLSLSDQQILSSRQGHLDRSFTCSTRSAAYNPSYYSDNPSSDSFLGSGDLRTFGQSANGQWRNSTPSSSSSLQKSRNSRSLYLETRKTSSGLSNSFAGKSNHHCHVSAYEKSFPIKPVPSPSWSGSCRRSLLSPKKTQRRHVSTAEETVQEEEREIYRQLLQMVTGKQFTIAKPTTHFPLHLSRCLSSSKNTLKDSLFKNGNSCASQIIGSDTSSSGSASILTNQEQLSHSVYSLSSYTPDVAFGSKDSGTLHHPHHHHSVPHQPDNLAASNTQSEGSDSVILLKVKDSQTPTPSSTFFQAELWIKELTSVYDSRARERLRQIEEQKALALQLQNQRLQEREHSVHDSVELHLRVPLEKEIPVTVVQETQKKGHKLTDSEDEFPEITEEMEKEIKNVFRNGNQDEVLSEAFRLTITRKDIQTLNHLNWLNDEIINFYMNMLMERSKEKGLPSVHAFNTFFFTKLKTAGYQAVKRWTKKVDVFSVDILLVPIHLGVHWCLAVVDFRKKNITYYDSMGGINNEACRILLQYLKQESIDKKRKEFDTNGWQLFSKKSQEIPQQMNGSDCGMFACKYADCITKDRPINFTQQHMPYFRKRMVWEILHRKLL

[2] = target: T1, Sentrin-specific protease 1; test: Dose response confirmation of small molecule inhibitors of the catalytic domain of the SUMO protease, SENP1 in a FRET assay.; type: functional; settings: read-out: IC50_Mean
[3] = inhibitors of firefly luciferase expression or activity, dose response, H4 neuroglioma cells, luminescence (AID 1990); type: functional, cell-based
[4] = Luminescence Cell-Based Dose Response HTS to Identify Inhibitors of 5'UTR Stem-Loop Driven Prion Protein mRNA Translation in H4 Neuroglioblastoma Cells. [Related pubchem assays: 1827 (Project Summary), 1813 (Primary HTS)]; type: functional
[5] = inhibitors of SNCA 5'UTR-driven reporter translation, confirmation, H4 neuroglioma cells, luminescence (AID 1988); type: functional, cell-based
[6] = target: T2, Short transient receptor potential channel 4 (Mus musculus, UniProt Q9QUQ5); test: mouse TRPC4 channel inhibitors, dose response, cell-based, HEK293 TRPC4/mu-opioid, Fluo-4 calcium (AID 434942); type: functional;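 note: potency of inhibitors blocking the TRPC4 calcium response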
T2 sequence (Q9QUQ5 whole entry): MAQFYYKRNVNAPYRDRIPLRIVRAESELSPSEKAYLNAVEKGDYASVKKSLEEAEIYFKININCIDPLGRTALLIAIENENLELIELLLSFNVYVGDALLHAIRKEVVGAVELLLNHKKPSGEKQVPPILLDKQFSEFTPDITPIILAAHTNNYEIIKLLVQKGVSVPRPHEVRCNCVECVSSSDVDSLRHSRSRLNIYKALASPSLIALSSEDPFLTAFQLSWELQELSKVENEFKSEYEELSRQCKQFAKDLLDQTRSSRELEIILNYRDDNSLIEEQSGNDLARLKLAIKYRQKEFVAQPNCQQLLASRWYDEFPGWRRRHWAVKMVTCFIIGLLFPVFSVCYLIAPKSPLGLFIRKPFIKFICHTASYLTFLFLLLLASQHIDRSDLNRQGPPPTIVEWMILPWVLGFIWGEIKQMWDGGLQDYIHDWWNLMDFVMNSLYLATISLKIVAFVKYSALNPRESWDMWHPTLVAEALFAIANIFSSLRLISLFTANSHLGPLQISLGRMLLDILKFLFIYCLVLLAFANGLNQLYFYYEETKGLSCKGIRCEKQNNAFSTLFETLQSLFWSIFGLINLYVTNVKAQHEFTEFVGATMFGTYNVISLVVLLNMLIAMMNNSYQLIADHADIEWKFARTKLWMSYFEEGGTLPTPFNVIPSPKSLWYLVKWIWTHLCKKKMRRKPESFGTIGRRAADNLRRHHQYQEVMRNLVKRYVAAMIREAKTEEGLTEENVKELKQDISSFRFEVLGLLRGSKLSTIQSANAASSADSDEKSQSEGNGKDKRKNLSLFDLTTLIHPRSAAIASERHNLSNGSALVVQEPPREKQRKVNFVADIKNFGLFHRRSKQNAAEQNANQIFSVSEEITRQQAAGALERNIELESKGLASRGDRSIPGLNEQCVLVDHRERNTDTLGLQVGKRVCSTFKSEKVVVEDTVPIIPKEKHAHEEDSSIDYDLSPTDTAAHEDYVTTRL

Insulin-degrading enzyme [7] = target: T3, Insulin-degrading enzyme (Homo sapiens, UniProt P14735); test: activators of recombinant IDE enzyme, dose response, counter-screen for IDE activator project, biochemical, fluorescence polarization (AID 588681)
T3 sequence (P14735 whole entry): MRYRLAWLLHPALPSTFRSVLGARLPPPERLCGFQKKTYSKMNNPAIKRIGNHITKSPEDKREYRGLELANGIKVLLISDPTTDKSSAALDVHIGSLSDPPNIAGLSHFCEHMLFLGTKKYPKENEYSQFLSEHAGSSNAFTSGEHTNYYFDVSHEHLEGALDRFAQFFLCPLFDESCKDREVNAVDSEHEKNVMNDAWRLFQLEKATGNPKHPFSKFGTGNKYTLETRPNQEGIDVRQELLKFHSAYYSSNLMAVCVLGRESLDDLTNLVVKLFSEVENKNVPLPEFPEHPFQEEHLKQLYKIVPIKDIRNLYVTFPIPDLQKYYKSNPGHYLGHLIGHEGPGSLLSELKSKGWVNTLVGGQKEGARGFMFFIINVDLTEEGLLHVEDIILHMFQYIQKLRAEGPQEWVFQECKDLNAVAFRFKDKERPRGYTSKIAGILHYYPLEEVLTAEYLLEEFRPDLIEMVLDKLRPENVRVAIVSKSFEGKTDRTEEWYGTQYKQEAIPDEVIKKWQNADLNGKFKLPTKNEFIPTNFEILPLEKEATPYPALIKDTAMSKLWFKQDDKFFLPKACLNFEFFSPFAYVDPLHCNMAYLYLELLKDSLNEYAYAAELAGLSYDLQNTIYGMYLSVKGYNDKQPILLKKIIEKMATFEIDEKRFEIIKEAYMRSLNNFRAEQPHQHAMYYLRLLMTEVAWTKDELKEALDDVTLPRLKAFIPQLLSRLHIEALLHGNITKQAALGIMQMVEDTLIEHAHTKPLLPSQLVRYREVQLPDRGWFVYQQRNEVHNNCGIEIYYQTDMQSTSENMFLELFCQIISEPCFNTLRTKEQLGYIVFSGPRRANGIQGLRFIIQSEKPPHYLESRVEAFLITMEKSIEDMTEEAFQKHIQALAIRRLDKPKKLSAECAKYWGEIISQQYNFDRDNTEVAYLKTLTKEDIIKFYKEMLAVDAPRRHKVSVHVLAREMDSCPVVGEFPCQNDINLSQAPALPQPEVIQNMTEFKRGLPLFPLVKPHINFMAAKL

Insulin-degrading enzyme [8] = target: T3, Insulin-degrading enzyme; test: activators of endogenous IDE in HEK cells, dose response, cell-based, fluorescence polarization (AID 588439); type: functional
HEK293 [9] = test: HEK cell cytotoxicity by LDH release, dose response, cytotoxicity control for IDE activator project, fluorescence, HEK cells (AID 588440); type: functional, cell-based; settings: Homo sapiens;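 note: cytotoxicity by LDH release measuring loss of membrane integrity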
HEK293 [10] = test: optical interference in Abeta FP readout, dose response, artefact control for IDE activator project, biochemical, fluorescence polarization (AID 588442); type: functional, cell-based; settings: Homo sapiens
Interleukin-8 = target: T4, Interleukin-8 (Homo sapiens, UniProt P10145); test: Dose Response confirmation of uHTS small molecule hits for cystic fibrosis induced NFkb Inhibitors in a PAF-induced IL8 counterscreen.; type: functional; settings: read-out: IC50_Mean
T4 sequence (P10145 whole entry): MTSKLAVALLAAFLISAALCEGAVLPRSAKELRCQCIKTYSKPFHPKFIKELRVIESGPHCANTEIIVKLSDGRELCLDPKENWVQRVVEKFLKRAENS

[11] = target: T5, Corticotropin-releasing factor receptor 2/Corticotropin-releasing factor-binding protein (Homo sapiens, UniProt P24387+Q13324); test: Dose Response confirmation of uHTS hits for small molecule antagonists of the CRF-binding protein and CRF-R2 receptor complex.; type: functional; settings: read-out: IC50_Mean
T5 sequence (Q13324 whole entry): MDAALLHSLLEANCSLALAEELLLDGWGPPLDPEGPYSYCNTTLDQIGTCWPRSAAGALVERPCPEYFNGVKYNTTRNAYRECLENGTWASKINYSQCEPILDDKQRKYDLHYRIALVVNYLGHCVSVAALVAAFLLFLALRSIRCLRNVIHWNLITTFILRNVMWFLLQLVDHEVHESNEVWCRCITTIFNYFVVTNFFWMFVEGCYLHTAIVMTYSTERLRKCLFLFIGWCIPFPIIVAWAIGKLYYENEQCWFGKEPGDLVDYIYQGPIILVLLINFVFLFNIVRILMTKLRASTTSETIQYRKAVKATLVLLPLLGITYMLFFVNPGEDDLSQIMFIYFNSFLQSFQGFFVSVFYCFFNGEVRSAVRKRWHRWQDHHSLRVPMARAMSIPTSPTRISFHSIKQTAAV
T5 sequence (P24387 whole entry): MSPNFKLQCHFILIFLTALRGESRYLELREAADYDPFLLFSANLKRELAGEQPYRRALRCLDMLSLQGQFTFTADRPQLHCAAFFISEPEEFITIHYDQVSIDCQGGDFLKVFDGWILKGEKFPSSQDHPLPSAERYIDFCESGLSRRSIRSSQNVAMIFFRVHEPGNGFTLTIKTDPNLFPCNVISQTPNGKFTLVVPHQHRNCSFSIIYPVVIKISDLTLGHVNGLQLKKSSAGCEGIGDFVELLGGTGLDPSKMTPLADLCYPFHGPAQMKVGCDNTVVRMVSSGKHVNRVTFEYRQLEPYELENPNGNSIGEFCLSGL

[12] = target: T5, Corticotropin-releasing factor receptor 2/Corticotropin-releasing factor-binding protein; test: activators of CRF receptor 2 with binding protein – uHTS hits, confirmation (AID 602473); type: functional; settings: read-out: EC50_Mean
[13] = CRF-BP/CRF-R2 complex antagonists, dose response, cell-based, uHTS hits, 384-well (AID 651639); type: functional, Homo sapiens; settings: read-out: IC50_Mean
[14] = inhibitors of intracellular T. cruzi replication, confirmation, NIH3T3 host cells, beta-gal luminescence (AID 2044); type: functional, cell-based;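 note: intracellular parasites grown in NIH/3T3 mouse fibroblasts as host cells; luminescent beta-galactosidase reporter signal from transgenic T. cruzi replicating inside host cells; inhibitors lower the luminescence signal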
[15] = cytotoxicity toward NIH3T3 fibroblasts, dose response, counter-screen, cell-based, ATP luminescence, mouse fibroblasts (AID 2010); type: functional;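 note: cells exposed to compound for about 90 hours before reading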
[16] = THP-1 cell cytotoxicity, dose response, cytotoxicity control for non-replicating M. tuberculosis project (AID 489025); type: functional
[17] = MDA-MB-231 cell growth inhibition, dose response, cytotoxicity control for RAD54 inhibitor project, CellTiter-Glo luminescence, cherry-pick (AID 651692); type: functional, cell-based
[18] = target: T6, DNA repair and recombination protein RAD54-like (Homo sapiens, UniProt Q92698); test: inhibitors of human RAD54 branch migration, confirmation, biochemical, fluorescence, cherry-picked samples, dose series (AID 651657); type: functional
T6 sequence (Q92698 whole entry): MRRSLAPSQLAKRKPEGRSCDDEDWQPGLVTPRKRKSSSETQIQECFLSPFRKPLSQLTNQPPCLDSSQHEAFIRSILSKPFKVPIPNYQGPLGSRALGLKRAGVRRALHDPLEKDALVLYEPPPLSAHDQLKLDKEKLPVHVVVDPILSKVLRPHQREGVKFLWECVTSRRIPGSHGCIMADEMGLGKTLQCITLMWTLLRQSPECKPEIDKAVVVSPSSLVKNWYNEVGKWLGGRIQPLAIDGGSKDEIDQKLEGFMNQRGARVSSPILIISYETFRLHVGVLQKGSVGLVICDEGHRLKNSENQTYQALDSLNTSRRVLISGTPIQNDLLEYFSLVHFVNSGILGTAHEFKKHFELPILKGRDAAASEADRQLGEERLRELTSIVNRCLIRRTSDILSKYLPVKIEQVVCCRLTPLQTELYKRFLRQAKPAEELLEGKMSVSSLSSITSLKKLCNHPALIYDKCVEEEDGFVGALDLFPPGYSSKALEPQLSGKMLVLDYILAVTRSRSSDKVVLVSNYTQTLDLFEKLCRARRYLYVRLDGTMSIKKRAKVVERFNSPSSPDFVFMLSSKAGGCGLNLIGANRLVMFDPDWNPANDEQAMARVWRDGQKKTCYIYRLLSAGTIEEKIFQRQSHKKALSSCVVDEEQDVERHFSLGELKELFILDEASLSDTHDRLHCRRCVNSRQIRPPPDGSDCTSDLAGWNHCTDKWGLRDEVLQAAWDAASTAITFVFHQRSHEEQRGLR

[19] = target: T7, Probable nicotinate-nucleotide adenylyltransferase (Staphylococcus aureus (strain N315), UniProt P65502); type: functional, Staphylococcus aureus subsp. aureus N315;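 for IC50 Mean: confirmatory dose-response retesting of NadD inhibitor hits first found in an ultra-high-throughput screen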
[20] = target: T7, Probable nicotinate-nucleotide adenylyltransferase; type: functional, Staphylococcus aureus subsp. aureus N315; settings: read-out: IC50_Mean

T7 sequence (P65502 whole entry): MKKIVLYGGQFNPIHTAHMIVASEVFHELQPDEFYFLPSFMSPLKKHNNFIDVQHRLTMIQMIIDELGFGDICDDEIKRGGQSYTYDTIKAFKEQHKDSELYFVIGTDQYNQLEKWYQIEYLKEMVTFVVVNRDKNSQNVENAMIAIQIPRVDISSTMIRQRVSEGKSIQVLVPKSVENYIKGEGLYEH

## C=CCOCCN1C(=O)C2C(c3ccccc3)C=CC(c3ccccc3)C2C1=O (stereo unspecified)
[1]
  IC50: 6.05 µM (active)
[2]
  IC50: 4.3 µM (active)

## CCOC(=O)c1c(O)nc2ccc(Cl)c3c2c1-c1ccccc1C3=O
[1]
  IC50: 18.3 µM (active)
[2]
  IC50: 2.75 µM (active)

## COc1ccc(/C=C2/SC(=S)N(CCCC(=O)Nc3ccccc3C(=O)O)C2=O)cc1
[3]
  EC50: 11 µM (active)
[4]
  EC50: 11.2 µM (active)
[5]
  EC50: 11.1 µM (active)
[6]
  EC50: 6.68 µM (active)
Insulin-degrading enzyme [7]
  EC50: > 54.6 µM (inactive)
Insulin-degrading enzyme [8]
  EC50: > 54.6 µM (inactive)
HEK293 [9]
  IC50: > 89.1 µM (inactive)
HEK293 [10]
  EC50: 58.7 µM (inactive)

## COCCNc1nc(Oc2cncc(Cl)c2)c2sccc2n1
Interleukin-8
  IC50: 29.2 µM (inactive)

## Cc1cccc(CSc2ccc3nnc(-c4cccs4)n3n2)c1
[11]
  IC50: 32.2 µM (active)
[12]
  EC50: > 53 µM (inactive)
[13]
  IC50: 2.57 µM (active)

## CCc1ccc(-c2cc(C)no2)cc1S(=O)(=O)Nc1ccc(Cl)cn1
[11]
  IC50: 27.5 µM (active)
[12]
  EC50: > 53 µM (inactive)
[13]
  IC50: > 20 µM (inactive)

## CCN(CC)CCSc1nnc2c3cc(C)ccc3n(Cc3ccccc3)c2n1
[14]
  EC50: 754 nM (active)
[15]
  EC50: > 60 µM (not active)
[16]
  CC50: 26.1 µM (active)
[17]
  AC50: 30.6 µM (active)
[18]
  AC50: 31.4 µM (active)

## Cc1cc2[nH]c(=O)c(=O)[nH]c2cc1S(=O)(=O)N1CCN(c2cccc(C(F)(F)F)c2)CC1
[19]
  IC50: 9.57 µM (active)
[20]
  IC50: 29.2 µM (active)
